The results in this text go back to US20260216207A1, “7-CARBONYLSTAUROSPORINE DERIVATIVE, PREPARATION METHOD THEREFOR, AND USE THEREOF” (HANGZHOU KEXING BIOCHEM. CO., LTD., priority 2023, published 2026).

Format in all cases: biochemical
The target of experiment [1] is PIM-1 kinase (Homo sapiens, UniProt P11309). Put plainly: HTRF KinEASE kinase assay, PIM-1 inhibitory activity. The source says:
Inhibitory activities against PIM-1, TRKA, TRKB, FLT3, PKCδ, PKCε, PKCη, PAK4, PLK1, ROCK2, and IKKβ kinases were all determined using an HTRF®KinEASE™ kinase assay kit based on a time-resolved fluorescence technology. 7-carbonylstaurosporine (7OSTA) and TP-3654 were used as positive controls, and 3 duplicate wells were set in parallel. Specific operation steps are as follows. • (1) A kinase buffer was formulated and then used to formulate compounds to be tested, a positive drug, a substrate, kinases, and adenosine triphosphate (ATP). • (2) 2 μL of the substrate, 2 μL of the kinases (the kinases were not added in a negative control group), 4 μL of the compounds to be tested or the positive drug (4 μL of a buffer was added in a positive control group, and 6 μL of a buffer was added in the negative control group), and 2 μL of the ATP were sequentially added into each well of a 384-well microplate, and the microplate was sealed with a membrane and then centrifuged for uniform mixing. • (3) According to different types of the kinases, incubation was performed in an incubator at 37° C. for a specific time. • (4) A detection solution was formulated using XL-665, an antibody, and a detection buffer, 10 µL of the detection solution was added into each well, the microplate was sealed with a membrane and then centrifuged for uniform mixing, and standing was performed at room temperature for 1 hour. • (5) Fluorescence value intensities F1 and F2 at wavelengths of 620 nm and 665 nm were measured using a multifunctional microplate tester, respectively. A signal ratio was calculated as F2/F1×10000, and then an IC50 value was calculated using Graphpad Prism 8 software.
(In general: Time-resolved FRET reads energy transfer from a long-lived donor to a nearby acceptor.)

Experiment [2] deals with TRKA (Homo sapiens, UniProt P04629). The experiment can be described thus: HTRF KinEASE kinase assay, TRKA (kinase selectivity). As to the method: (§1) Inhibitory activities against PIM-1, TRKA, TRKB, FLT3, PKCδ, PKCε, PKCη, PAK4, PLK1, ROCK2, and IKKβ kinases were all determined using an HTRF®KinEASE™ kinase assay kit based on a time-resolved fluorescence technology. 7-carbonylstaurosporine (7OSTA) and TP-3654 were used as positive controls, and 3 duplicate wells were set in parallel. […] A signal ratio was calculated as F2/F1×10000, and then an IC50 value was calculated using Graphpad Prism 8 software.
TRKA, sequence (P04629 33-796, species assumed): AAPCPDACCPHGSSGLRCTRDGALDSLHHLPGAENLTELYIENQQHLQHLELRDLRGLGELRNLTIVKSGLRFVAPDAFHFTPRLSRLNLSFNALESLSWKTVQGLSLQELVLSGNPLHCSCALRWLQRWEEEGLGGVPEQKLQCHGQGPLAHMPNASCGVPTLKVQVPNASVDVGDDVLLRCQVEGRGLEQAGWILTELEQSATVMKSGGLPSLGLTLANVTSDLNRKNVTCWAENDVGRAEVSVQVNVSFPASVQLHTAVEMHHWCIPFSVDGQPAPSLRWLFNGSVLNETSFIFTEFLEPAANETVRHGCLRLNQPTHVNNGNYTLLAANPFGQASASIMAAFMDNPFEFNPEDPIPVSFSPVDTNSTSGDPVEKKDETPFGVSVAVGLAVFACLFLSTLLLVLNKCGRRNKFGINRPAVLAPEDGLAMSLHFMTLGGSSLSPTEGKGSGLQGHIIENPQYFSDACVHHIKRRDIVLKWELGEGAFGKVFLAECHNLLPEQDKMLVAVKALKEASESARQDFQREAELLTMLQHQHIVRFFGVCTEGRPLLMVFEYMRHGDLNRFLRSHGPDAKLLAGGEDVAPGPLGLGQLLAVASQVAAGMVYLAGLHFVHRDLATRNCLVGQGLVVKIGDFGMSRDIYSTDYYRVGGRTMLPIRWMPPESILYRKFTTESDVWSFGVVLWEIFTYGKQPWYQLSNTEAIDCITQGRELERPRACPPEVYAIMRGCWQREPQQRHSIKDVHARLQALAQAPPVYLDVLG

Experiment [3] has as its target T1, FLT3 (Homo sapiens, UniProt P36888).
T1 sequence (P36888 27-993): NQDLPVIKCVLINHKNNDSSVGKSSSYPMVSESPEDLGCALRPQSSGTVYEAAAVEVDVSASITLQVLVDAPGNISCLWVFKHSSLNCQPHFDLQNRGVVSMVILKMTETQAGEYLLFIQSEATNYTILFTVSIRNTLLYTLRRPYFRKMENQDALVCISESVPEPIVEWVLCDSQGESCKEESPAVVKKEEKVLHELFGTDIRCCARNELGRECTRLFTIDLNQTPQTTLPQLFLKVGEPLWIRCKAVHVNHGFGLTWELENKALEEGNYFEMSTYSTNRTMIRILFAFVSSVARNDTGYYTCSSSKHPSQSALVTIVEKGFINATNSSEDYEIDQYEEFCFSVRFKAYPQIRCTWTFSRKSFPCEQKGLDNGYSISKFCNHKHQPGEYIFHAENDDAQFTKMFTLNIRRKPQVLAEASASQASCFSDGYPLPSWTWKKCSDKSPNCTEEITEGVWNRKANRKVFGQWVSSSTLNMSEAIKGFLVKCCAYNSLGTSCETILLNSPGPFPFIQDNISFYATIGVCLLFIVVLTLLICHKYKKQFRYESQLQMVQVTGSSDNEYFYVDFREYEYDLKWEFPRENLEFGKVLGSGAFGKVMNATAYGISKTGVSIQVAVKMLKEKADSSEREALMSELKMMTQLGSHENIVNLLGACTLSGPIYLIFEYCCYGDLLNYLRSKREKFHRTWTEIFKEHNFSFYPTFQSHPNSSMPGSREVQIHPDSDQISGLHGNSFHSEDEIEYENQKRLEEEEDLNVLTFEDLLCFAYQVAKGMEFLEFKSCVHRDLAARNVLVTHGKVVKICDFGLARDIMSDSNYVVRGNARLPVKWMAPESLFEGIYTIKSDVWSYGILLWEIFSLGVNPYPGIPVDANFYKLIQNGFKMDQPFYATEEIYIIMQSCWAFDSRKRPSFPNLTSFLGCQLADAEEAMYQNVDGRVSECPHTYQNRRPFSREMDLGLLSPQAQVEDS
Put plainly: HTRF KinEASE kinase assay, FLT3 (kinase selectivity). The method, then: as §1

For experiment [4], the target named is PKCδ (Homo sapiens, UniProt Q05655). The experiment can be described thus: HTRF KinEASE kinase assay, PKCδ (kinase selectivity). The method, then:
as §1

Experiment [5] concerns the target TRKB (Homo sapiens, UniProt Q16620). Put plainly: HTRF KinEASE kinase assay, TRKB (kinase selectivity). The method, then: as §1
Experiment [6] concerns the target T2, PKCε (Homo sapiens, UniProt Q02156).
T2 sequence (Q02156 1-737): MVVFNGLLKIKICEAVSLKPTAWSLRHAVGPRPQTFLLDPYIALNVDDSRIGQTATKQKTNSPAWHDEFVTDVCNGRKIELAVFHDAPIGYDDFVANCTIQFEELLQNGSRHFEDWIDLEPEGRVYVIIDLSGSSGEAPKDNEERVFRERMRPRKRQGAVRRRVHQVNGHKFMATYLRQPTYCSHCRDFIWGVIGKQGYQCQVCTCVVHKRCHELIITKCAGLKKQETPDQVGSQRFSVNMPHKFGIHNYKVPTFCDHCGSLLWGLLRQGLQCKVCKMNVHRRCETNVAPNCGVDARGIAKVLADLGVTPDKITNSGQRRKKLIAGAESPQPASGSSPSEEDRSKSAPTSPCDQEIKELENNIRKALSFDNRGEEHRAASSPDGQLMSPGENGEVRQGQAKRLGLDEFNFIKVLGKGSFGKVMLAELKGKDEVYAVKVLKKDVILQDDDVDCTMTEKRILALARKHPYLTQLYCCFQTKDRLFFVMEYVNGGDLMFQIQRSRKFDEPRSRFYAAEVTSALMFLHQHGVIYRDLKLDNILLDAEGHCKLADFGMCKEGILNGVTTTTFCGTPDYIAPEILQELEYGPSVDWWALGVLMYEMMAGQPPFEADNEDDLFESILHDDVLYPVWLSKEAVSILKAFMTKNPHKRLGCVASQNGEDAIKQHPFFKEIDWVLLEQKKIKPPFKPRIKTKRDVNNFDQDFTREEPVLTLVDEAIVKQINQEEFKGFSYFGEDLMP
The experiment can be described thus: HTRF KinEASE kinase assay, PKCε (kinase selectivity). As to the method: as §1

Experiment [7] deals with PKCη (Homo sapiens, UniProt P24723). Put plainly: HTRF KinEASE kinase assay, PKCη (kinase selectivity). The method, then:
as §1

The target of experiment [8] is PAK4 (Homo sapiens, UniProt O96013). The experiment can be described thus: HTRF KinEASE kinase assay, PAK4 (kinase selectivity). The method, then:
as §1

In experiment [9] the target is PLK1 (Homo sapiens, UniProt P53350). The experiment can be described thus: HTRF KinEASE kinase assay, PLK1 (kinase selectivity). The method, then: as §1
For experiment [10], the target named is ROCK2 (Homo sapiens, UniProt O75116). The experiment can be described thus: HTRF KinEASE kinase assay, ROCK2 (kinase selectivity). As to the method: as §1
ROCK2, sequence (O75116 whole entry, species assumed): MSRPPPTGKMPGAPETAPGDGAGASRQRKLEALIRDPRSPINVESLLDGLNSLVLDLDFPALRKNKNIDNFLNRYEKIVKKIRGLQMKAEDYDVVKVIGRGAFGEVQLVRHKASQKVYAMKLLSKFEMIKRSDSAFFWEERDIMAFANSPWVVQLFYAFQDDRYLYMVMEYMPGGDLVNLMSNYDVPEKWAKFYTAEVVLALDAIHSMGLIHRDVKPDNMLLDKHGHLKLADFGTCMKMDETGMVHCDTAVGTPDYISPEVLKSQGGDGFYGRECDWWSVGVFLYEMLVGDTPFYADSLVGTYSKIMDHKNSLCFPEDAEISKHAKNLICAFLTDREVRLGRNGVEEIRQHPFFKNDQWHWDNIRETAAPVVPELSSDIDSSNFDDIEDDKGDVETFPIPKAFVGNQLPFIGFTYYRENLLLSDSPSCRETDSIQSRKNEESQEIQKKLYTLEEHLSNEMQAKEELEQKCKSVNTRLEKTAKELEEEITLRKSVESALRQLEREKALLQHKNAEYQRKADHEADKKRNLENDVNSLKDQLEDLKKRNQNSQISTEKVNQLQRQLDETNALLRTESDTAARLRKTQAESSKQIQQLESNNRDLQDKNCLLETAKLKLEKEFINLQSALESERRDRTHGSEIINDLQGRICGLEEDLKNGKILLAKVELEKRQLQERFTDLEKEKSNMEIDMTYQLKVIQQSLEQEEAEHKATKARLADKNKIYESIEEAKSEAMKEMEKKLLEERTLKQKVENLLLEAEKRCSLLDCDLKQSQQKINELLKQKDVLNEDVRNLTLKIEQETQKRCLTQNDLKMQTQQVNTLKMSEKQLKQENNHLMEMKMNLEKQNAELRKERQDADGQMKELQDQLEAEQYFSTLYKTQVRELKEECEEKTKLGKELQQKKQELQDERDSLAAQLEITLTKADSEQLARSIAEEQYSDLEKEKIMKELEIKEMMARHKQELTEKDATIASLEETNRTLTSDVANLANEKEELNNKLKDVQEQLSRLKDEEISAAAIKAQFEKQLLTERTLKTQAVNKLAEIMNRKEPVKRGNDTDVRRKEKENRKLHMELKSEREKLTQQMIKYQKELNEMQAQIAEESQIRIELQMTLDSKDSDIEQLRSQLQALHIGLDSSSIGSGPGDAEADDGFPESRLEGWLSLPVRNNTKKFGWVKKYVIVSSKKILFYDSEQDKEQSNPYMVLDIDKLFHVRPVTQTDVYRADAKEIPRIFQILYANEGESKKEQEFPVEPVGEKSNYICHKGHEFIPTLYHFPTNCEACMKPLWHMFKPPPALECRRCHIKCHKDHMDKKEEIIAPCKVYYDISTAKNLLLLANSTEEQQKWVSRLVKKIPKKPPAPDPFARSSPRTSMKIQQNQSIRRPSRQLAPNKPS
For experiment [11], the target named is T3, IKKβ (Homo sapiens, UniProt O14920).
T3 sequence (O14920 1-756): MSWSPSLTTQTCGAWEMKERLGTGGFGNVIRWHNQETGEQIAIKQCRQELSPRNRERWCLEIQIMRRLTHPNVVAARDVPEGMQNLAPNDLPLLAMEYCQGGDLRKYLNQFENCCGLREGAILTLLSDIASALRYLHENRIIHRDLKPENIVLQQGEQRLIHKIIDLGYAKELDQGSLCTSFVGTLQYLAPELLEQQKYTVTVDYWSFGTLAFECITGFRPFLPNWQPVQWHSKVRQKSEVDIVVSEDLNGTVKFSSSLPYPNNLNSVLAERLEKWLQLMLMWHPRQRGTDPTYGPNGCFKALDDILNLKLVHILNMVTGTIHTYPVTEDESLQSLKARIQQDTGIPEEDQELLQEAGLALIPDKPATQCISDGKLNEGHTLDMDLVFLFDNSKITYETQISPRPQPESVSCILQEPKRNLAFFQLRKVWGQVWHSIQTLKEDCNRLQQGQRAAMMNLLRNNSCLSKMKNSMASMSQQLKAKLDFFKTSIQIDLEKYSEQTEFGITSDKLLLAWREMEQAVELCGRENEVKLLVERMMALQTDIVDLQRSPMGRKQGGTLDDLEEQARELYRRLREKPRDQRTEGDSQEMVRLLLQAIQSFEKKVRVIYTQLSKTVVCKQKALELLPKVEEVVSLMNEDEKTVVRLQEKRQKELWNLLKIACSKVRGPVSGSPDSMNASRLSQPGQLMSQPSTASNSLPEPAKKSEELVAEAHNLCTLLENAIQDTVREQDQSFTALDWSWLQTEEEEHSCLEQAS
Put plainly: HTRF KinEASE kinase assay, IKKβ (kinase selectivity). As to the method: as §1

Where [12] appears, read: HTRF KinEASE kit, 3 duplicate wells, read-out: PIM-1 kinase inhibitory activity (IC50).

Like-named read-outs stand apart in the source and are kept apart here. A value given as a limit tells only on which side of the number the result lay.

PIM-1 kinase, sequence (P11309 whole entry): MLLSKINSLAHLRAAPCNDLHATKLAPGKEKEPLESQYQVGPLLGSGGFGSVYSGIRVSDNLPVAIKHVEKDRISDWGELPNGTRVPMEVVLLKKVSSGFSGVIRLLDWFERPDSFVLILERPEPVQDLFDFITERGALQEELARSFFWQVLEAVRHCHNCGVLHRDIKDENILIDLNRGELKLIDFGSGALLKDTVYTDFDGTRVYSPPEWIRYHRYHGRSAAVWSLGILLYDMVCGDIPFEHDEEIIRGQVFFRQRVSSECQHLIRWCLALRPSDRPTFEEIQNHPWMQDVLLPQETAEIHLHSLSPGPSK
PKCδ, sequence (Q05655 whole entry): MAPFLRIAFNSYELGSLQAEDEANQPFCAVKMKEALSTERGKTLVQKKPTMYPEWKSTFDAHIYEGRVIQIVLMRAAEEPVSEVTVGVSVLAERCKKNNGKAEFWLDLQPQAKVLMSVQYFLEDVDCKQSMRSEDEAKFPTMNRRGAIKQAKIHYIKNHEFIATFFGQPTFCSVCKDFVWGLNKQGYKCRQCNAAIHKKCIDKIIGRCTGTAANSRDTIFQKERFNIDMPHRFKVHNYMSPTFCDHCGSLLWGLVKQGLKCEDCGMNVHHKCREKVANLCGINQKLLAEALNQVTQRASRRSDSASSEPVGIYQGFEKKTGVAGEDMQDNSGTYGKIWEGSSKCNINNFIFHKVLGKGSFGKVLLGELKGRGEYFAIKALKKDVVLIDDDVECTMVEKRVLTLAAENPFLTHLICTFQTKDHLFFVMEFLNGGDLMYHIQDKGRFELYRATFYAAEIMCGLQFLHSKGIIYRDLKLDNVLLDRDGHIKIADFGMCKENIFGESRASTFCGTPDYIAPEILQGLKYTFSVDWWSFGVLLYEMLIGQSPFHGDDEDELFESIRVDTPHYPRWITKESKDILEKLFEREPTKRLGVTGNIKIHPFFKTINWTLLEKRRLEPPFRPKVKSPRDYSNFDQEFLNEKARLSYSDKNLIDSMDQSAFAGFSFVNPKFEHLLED
PAK4, sequence (O96013 whole entry, species assumed): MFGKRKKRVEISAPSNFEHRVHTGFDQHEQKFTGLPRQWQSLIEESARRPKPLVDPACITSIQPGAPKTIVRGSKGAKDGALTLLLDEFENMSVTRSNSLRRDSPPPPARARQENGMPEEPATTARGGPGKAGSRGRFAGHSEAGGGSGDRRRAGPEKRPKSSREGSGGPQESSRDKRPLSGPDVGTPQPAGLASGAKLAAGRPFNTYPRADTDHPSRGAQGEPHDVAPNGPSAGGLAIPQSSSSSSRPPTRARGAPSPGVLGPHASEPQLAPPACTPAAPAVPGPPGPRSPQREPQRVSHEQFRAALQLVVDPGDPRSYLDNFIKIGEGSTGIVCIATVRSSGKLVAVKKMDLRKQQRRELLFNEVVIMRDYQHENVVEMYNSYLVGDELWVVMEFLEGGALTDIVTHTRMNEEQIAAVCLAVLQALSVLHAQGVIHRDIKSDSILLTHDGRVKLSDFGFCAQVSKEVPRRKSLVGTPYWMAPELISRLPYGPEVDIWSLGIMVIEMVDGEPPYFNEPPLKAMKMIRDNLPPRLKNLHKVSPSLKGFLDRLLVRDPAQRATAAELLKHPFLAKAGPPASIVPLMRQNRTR
TRKB, sequence (Q16620 32-822, species assumed): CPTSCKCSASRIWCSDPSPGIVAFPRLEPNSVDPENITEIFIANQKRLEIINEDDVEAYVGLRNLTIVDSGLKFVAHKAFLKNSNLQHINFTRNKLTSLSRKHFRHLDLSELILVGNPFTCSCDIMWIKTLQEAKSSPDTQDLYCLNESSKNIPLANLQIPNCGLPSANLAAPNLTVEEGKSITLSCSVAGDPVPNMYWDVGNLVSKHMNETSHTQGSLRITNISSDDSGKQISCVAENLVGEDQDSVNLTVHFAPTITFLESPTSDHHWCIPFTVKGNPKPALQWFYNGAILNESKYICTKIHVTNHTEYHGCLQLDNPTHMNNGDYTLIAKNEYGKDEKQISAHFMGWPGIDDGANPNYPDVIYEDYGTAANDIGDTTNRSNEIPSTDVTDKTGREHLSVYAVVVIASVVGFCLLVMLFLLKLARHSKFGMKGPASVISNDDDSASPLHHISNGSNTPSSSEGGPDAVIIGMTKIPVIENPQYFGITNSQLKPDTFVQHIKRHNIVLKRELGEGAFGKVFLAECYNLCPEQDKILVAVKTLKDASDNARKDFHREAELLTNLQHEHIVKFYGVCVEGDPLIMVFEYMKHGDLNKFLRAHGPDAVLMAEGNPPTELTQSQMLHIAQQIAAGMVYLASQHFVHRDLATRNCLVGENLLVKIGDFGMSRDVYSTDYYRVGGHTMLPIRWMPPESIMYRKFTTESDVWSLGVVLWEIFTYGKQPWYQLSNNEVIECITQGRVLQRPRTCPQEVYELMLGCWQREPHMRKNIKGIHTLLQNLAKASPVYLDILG

For `CCC(=O)N(C)[C@@H]1C[C@H]2O[C@@](C)([C@@H]1OC)n1c3ccccc3c3c4c(c5c6ccccc6n2c5c31)C(=O)NC4=O` [Compound 1], the IC50 in experiment [1] (setting [12]) is 0.041 µM.
On the same count and under the same terms, the result for `CCCC(=O)N(C)[C@@H]1C[C@H]2O[C@@](C)([C@@H]1OC)n1c3ccccc3c3c4c(c5c6ccccc6n2c5c31)C(=O)NC4=O` [Compound 2] reads 0.083 µM; that for `CCCCC(=O)N(C)[C@@H]1C[C@H]2O[C@@](C)([C@@H]1OC)n1c3ccccc3c3c4c(c5c6ccccc6n2c5c31)C(=O)NC4=O` [Compound 3], greater than 1 µM.
On to `CCCCCC(=O)N(C)[C@@H]1C[C@H]2O[C@@](C)([C@@H]1OC)n1c3ccccc3c3c4c(c5c6ccccc6n2c5c31)C(=O)NC4=O` [Compound 4], for which, in experiment [1] (setting [12]), the IC50 is greater than 1 µM.
Regarding `CCCCCCC(=O)N(C)[C@@H]1C[C@H]2O[C@@](C)([C@@H]1OC)n1c3ccccc3c3c4c(c5c6ccccc6n2c5c31)C(=O)NC4=O` [Compound 5], the IC50 in [1] (setting [12]) was greater than 1 µM.
Same read-out and setting: with `CCCCCCCC(=O)N(C)[C@@H]1C[C@H]2O[C@@](C)([C@@H]1OC)n1c3ccccc3c3c4c(c5c6ccccc6n2c5c31)C(=O)NC4=O` [Compound 6] the figure was greater than 1 µM.
On to `CN[C@@H]1C[C@H]2O[C@@](C)([C@@H]1OC)n1c3ccccc3c3c4c(c5c6ccccc6n2c5c31)C(=O)NC4=O` [Compound 7OSTA, 7-carbonylstaurosporine], for which the half-maximal inhibitory concentration (IC50) in [1] turned out to be 0.0054 µM; in experiment [2], 0.0004 µM; in experiment [3], 0.0153 µM; in [4], 0.0014 µM; in [5] it was 0.0024 µM; in experiment [6] it was 0.0023 µM. Besides, the half-maximal inhibitory concentration (IC50) in experiment [7] was 0.0021 µM; in experiment [8], 0.037 µM; in experiment [9] it was 0.308 µM; in experiment [10], 0.0359 µM; in experiment [11] it was greater than 1 µM.
For the compound `CO[C@@H]1[C@H](N(C)C(=O)C2CC2)C[C@H]2O[C@]1(C)n1c3ccccc3c3c4c(c5c6ccccc6n2c5c31)C(=O)NC4=O` [Compound 7], in [1] (setting [12]), the 50% inhibitory concentration (IC50) is 0.445 µM.
Still for that read-out and setting: with `CO[C@@H]1[C@H](N(C)C(=O)c2cccs2)C[C@H]2O[C@]1(C)n1c3ccccc3c3c4c(c5c6ccccc6n2c5c31)C(=O)NC4=O` [Compound 8] the figure was 0.0524 µM; with `CO[C@@H]1[C@H](N(C)C(=O)c2ccc3c(c2)OCO3)C[C@H]2O[C@]1(C)n1c3ccccc3c3c4c(c5c6ccccc6n2c5c31)C(=O)NC4=O` [Compound 9], greater than 1 µM; with `CO[C@@H]1[C@H](N(C)C(=O)C=C(C)C)C[C@H]2O[C@]1(C)n1c3ccccc3c3c4c(c5c6ccccc6n2c5c31)C(=O)NC4=O` [Compound 10], 0.0814 µM.
Still for that read-out and setting: the result for `CO[C@@H]1[C@H](N(C)C(=O)/C=C/c2ccccc2)C[C@H]2O[C@]1(C)n1c3ccccc3c3c4c(c5c6ccccc6n2c5c31)C(=O)NC4=O` [Compound 11] reads greater than 1 µM; that for `CO[C@@H]1[C@H](N(C)C(=O)CCC(=O)O)C[C@H]2O[C@]1(C)n1c3ccccc3c3c4c(c5c6ccccc6n2c5c31)C(=O)NC4=O` [Compound 12], 0.0429 µM; that for `CO[C@@H]1[C@H](N(C)C(=O)CCCC(=O)O)C[C@H]2O[C@]1(C)n1c3ccccc3c3c4c(c5c6ccccc6n2c5c31)C(=O)NC4=O` [Compound 13], 0.0391 µM.
The same measure, in the same setting: with `CO[C@@H]1[C@H](N(C)C(=O)CSCC(=O)O)C[C@H]2O[C@]1(C)n1c3ccccc3c3c4c(c5c6ccccc6n2c5c31)C(=O)NC4=O` [Compound 14] the figure was 0.0538 µM; with `CO[C@@H]1[C@H](N(C)C(=O)CCCCC(=O)O)C[C@H]2O[C@]1(C)n1c3ccccc3c3c4c(c5c6ccccc6n2c5c31)C(=O)NC4=O` [Compound 15], 0.0611 µM.
As to `CO[C@@H]1[C@H](N(C)C(=O)CCCCCCC(=O)O)C[C@H]2O[C@]1(C)n1c3ccccc3c3c4c(c5c6ccccc6n2c5c31)C(=O)NC4=O` [Compound 16], the concentration for half-maximal inhibition (IC50) in experiment [1] (setting [12]) was found to be 0.0659 µM.
Same read-out and setting: with `CO[C@@H]1[C@H](N(C)C(=O)CCC(=O)Nc2cc[nH]n2)C[C@H]2O[C@]1(C)n1c3ccccc3c3c4c(c5c6ccccc6n2c5c31)C(=O)NC4=O` [Compound 18] the figure was 0.0324 µM; with `CC(C)(O)[C@H]1CC[C@H](Nc2ccc3ncc(-c4cccc(C(F)(F)F)c4)n3n2)CC1` [TP-3654, reference compound], 0.0311 µM.

A word on the IC50: it is the concentration that gives 50% inhibition.
